Assay results: US6921776B1, “Compound” (Sterix Limited, priority 1996, dated 2005)
Like-named read-outs stand apart in the source and are kept apart here. Blank lines part the entries; values can stand above or below the compound they belong to.

Assays:
[1] = target: T1, oestrone sulphatase (E1-STS) (Homo sapiens, UniProt P08842); conditions: for E1-STS inhibitory potency compared with COUMATE: placental microsomes
T1 sequence (P08842 22-583): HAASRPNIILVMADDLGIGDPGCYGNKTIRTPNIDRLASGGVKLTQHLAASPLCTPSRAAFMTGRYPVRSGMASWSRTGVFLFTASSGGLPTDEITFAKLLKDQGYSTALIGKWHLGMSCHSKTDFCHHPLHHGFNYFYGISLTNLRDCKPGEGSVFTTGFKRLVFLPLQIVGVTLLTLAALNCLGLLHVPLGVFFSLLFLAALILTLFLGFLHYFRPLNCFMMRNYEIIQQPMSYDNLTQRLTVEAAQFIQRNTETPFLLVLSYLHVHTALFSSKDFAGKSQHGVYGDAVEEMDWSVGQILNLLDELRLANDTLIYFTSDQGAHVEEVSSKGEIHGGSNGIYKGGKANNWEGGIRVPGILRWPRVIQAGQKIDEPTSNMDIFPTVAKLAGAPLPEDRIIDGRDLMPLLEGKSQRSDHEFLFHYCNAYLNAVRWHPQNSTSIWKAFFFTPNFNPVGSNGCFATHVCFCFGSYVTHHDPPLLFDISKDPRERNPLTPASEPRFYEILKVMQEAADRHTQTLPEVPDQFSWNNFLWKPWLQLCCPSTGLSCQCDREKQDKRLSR

[2] = target: T1, oestrone sulphatase (E1-STS); conditions: cited from earlier work; for Mode of E1-STS inhibition: literature
[3] = target: T1, oestrone sulphatase (E1-STS); test: Inhibition of oestrone sulphatase (E1-STS) in intact MCF-7 breast cancer cells; conditions: 10 μM
oestrone sulphatase = target: T2, oestrone sulphatase (Rattus norvegicus, UniProt P15589); test: Sulphatase activity in white blood cells of rats after oral dosing; format: in vivo
T2 construct: from tissue; host or cells: white blood cells of orally dosed rats
T2 sequence (P15589 20-577): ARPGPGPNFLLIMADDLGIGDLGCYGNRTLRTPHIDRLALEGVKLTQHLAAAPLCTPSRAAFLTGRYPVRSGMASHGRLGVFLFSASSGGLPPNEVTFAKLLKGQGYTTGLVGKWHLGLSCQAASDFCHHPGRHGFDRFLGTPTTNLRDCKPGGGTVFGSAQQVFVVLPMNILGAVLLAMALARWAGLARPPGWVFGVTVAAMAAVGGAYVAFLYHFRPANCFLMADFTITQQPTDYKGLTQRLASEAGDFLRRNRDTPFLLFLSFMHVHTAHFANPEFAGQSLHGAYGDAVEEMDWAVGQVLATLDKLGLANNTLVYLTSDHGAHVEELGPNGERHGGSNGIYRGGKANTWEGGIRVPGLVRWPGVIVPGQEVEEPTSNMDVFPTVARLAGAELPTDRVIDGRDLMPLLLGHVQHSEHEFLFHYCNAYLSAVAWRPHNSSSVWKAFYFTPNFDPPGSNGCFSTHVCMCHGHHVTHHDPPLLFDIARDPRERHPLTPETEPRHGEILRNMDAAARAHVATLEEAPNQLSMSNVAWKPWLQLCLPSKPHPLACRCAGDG

[4] = target: T1, oestrone sulphatase (E1-STS); test: Time- and concentration-dependent inactivation of oestrone sulphatase in placental microsomes (preincubation); format: biochemical
ovariectomised rats = test: Oestrogenic activity: uterine weight in ovariectomised rats; format: in vivo, rat; conditions: 1 mg/kg s.c. for 5 days
ovariectomized rats [5] = conditions: oral, from Ref. 31; cited from earlier work
[6] = target: T1, oestrone sulphatase (E1-STS); conditions: cited from earlier work
E1-STS [7] = target: T3, E1-STS (Rattus norvegicus, UniProt P15589); test: E1-STS activity in uteri of treated ovariectomised rats; format: in vivo; conditions: 1 mg/kg s.c. for 5 days
T3 construct: The E1-STS activity in the uteri obtained from these animals; from tissue; host or cells: uteri of ovariectomised rats dosed in vivo
T3 sequence (P15589 20-577): T2 sequence (P15589 20-577)

ovariectomized rats [8] = test: Oestrogenicity after oral administration: E1S-stimulated uterine growth in ovariectomized rats; format: in vivo, rat
Description: The oestrogenic activity of 17 was also studied.

rat liver DHA-STS = target: T4, rat liver DHA-STS (Rattus norvegicus, UniProt P15589); conditions: administered orally or subcutaneously; cited from earlier work
T4 construct: host or cells: rat liver, after dosing in vivo
T4 sequence (P15589 20-577): T2 sequence (P15589 20-577)

[9] = target: T1, oestrone sulphatase (E1-STS); parameters: endogenous in cells; host or cells: MCF-7 breast cancer cells; conditions: 0.1 μM; cited from earlier work
[10] = target: T5, dehydroepiandrosterone sulphatase (DHA-STS) (Homo sapiens, UniProt P08842); conditions: read-out: IC50 for inhibition of DHEA sulphatase in placental microsomes; from Ref. 25; cited from earlier work
T5 sequence (P08842 22-583): T1 sequence (P08842 22-583)

[11] = in vivo; cited from earlier work
E1-STS [12] = target: T6, E1-STS (Homo sapiens, UniProt P08842); conditions: previous work, Ref. 28; cited from earlier work
T6 sequence (P08842 22-583): T1 sequence (P08842 22-583)

E1-STS [13] = target: T6, E1-STS; test: Substrate test: hydrolysis of coumarin sulphates by placental microsomes in absence or presence of EMATE; conditions: 100 μg, 1 h, placental microsomes ± EMATE 10 μM
[14] = Chemical and thermal stability of coumarin sulphate; format: physicochemical; conditions: sodium hydroxide in methanol

% Inhibition ± S.D. of E1-STS activity in placental microsomes ([1]; 0.1 μM (Table 1)): 42 ± 2%
% Inhibition ± S.D. of E1-STS activity in placental microsomes ([1]; 1 μM (Table 1)): 94 ± 1%
% Inhibition ± S.D. of E1-STS activity in placental microsomes ([1]; 10 μM (Table 1)): 96 ± 1%
Compound: CCCc1cc(=O)oc2cc(OS(N)(=O)=O)ccc12 [compound 6, 4-(n-Propyl)coumarin-7-O-sulphamate]
E1-STS inhibitory potency compared with COUMATE [1]: more potent E1-STS inhibitors than COUMATE

Compound: oestrone-3-N-sulphamate
Mode of E1-STS inhibition [2]: weaker non-time-dependent inactivators

% Inhibition ± S.D. of E1-STS activity in placental microsomes ([1]; 0.1 μM (Table 1)): 83 ± 1%
% Inhibition ± S.D. of E1-STS activity in placental microsomes ([1]; 1 μM (Table 1)): 97 ± 1%
% Inhibition ± S.D. of E1-STS activity in placental microsomes ([1]; 10 μM (Table 1)): >99%
Compound: CCCc1c(C)c2ccc(OS(N)(=O)=O)cc2oc1=O [compound 11, 4Methyl-3-(n-propyl)coumarin-7-O-sulphamate]
E1-STS inhibitory potency compared with COUMATE [1]: more potent E1-STS inhibitors than COUMATE

% inhibition of E1-STS in intact MCF-7 cells [3]: 71.5%
Compound: NS(=O)(=O)Oc1ccc2c(C(F)(F)F)cc(=O)oc2c1 [compound 16]

Oral activity in rats (oestrone sulphatase): potent oral activity
% Inhibition of sulphatase activity in white blood cells, MD (oestrone sulphatase; daily for seven days 0.1 mg/kg): 65%
% Inhibition of sulphatase activity in white blood cells, MD (oestrone sulphatase; daily for seven days 1.0 mg/kg): 85%
% Inhibition of sulphatase activity in white blood cells, MD (oestrone sulphatase; daily for seven days 10.0 mg/kg): 89%
Inhibition of E1-STS activity in uteri compared with untreated animals (E1-STS [7]): 89.4%
Compound: Cc1cc(=O)oc2cc(OS(N)(=O)=O)ccc12 [compound 14]
Mode of E1-STS inhibition [4]: time- and concentration-dependent manner in a biphasic fashion
Effect on uterine weight (oestrogenic activity) (ovariectomised rats): did not result in any significant increase in the uterine weight
Oestrogenicity (ovariectomized rats [5]): devoid of oestrogenicity
% Inhibition ± S.D. of E1-STS activity in placental microsomes ([6]; 0.1 μM (Table 1, reproduced from Ref. 28)): <10%
% Inhibition ± S.D. of E1-STS activity in placental microsomes ([6]; 1 μM (Table 1, reproduced from Ref. 28)): 63 ± 1%

% Inhibition ± S.D. of E1-STS activity in placental microsomes ([1]; 0.01 μM (Table 2)): <10%
% Inhibition ± S.D. of E1-STS activity in placental microsomes ([1]; 0.1 μM (Table 2)): 31 ± 5%
% Inhibition ± S.D. of E1-STS activity in placental microsomes ([1]; 1 μM (Table 2)): 94 ± 2%
Compound: NS(=O)(=O)Oc1ccc2c(c1)OC(=O)CC1=C2CCCC1 [compound 22, 6-Oxo-6,7,8,9,10,11-hexahydrodibenz[b,d]oxepin-3-O-sulphamate]

% Inhibition ± S.D. of E1-STS activity in placental microsomes ([1]; 0.1 μM (Table 1)): 57 ± 1%
% Inhibition ± S.D. of E1-STS activity in placental microsomes ([1]; 1 μM (Table 1)): 96 ± 1%
% Inhibition ± S.D. of E1-STS activity in placental microsomes ([1]; 10 μM (Table 1)): >99%
Compound: CCc1c(C)c2ccc(OS(N)(=O)=O)cc2oc1=O [compound 8, 3-Ethyl-4-methylcoumarin-7-O-sulphamate]
E1-STS inhibitory potency compared with COUMATE [1]: more potent E1-STS inhibitors than COUMATE

Compound: NS(=O)(=O)Oc1ccc2c3c(c(=O)oc2c1)CCCCC3 [compound 17, 6-Oxo-8,9,10,11-tetrahydro-7H-cyclohepta-[c][1]benzopyran-3-O-sulphamate]
Oestrogenicity (ovariectomized rats [8]): devoid of oestrogenicity
Oestrogenicity (ovariectomized rats [8]; listed as 667COUMATE): not being oestrogenic

Compound: C[C@]12CC[C@@H]3c4ccc(OS(N)(=O)=O)cc4CC[C@H]3[C@@H]1CCC2=O [EMATE, oestrone-3-sulphamate]
Inhibition of rat liver DHA-STS activity (rat liver DHA-STS): 99%
% inhibition of E1-STS activity in intact MCF-7 cells [9]: more than 99%
Mode of E1-STS inhibition [2]: time- and concentration-dependent manner
KI (inactivation) ([2]; read-out: Apparent Ki for E1-STS inactivation, from Ref. 25): 670 nM
IC50 [1]: 25 nM
IC50 [10]: 110 nM

Compound: oestrone-3-S-sulphamate
Mode of E1-STS inhibition [2]: weaker non-time-dependent inactivators

Compound: C[C@]12CC[C@@H]3c4ccc(OS(=O)(=O)O)cc4CC[C@H]3[C@@H]1CCC2=O [E1S, oestrone sulphate]
Half-life in blood [11]: 10 to 12 h

% Inhibition ± S.D. of E1-STS activity in placental microsomes ([1]; 0.1 μM (Table 1)): 35 ± 1%
% Inhibition ± S.D. of E1-STS activity in placental microsomes ([1]; 1 μM (Table 1)): 88 ± 1%
% Inhibition ± S.D. of E1-STS activity in placental microsomes ([1]; 10 μM (Table 1)): >99%
Compound: CCc1cc(=O)oc2cc(OS(N)(=O)=O)ccc12 [compound 4, 4-Ethylcoumarin-7-O-sulphamate]
E1-STS inhibitory potency compared with COUMATE [1]: more potent E1-STS inhibitors than COUMATE

melting point: 172 to 175 °C (dec.)
Compound: Cc1cc(=O)oc2cc(OS(=O)(=O)[O-])ccc12.[Na+] [compound 12, 7-(Sulphoxy)-4-Methylcoumarin, sodium salt]
Substrate for E1-STS (E1-STS [12]): substrate for E1-STS
Substrate for E1-STS (E1-STS [13]): the coumarin sulphate is indeed a substrate for the sulphatase
Stability in basic and acidic conditions [14]: stable in bases such as sodium hydroxide in methanol but not in acidic conditions

% Inhibition ± S.D. of E1-STS activity in placental microsomes ([1]; 0.01 μM (Table 2)): 17 ± 2%
% Inhibition ± S.D. of E1-STS activity in placental microsomes ([1]; 0.1 μM (Table 2)): 89 ± 1%
Inhibition of E1-STS in placental microsomes ([1]; 1 μM): almost complete inhibition
% Inhibition ± S.D. of E1-STS activity in placental microsomes ([1]; 1 μM (Table 2)): >99%
Compound: NS(=O)(=O)Oc1ccc2c3c(c(=O)oc2c1)CCCCCC3 [compound 20, 6-Oxo-7,8,9,10,11,12-hexahydro-cycloocta-[c][1]benzopyran-3-O-sulphamate]

Compound: Coumarin-7-O-sulphamate [compound 13]
% Inhibition ± S.D. of E1-STS activity in placental microsomes ([6]; 10 μM (Table 1, reproduced from Ref. 28)): 78 ± 1%
% Inhibition of E1-STS activity in placental microsomes ([6]; 50 μM (footnote a, Ref. 28)): > 90%

Substrate for E1-STS (E1-STS [13]): is a substrate for this enzyme
Compound: O=c1oc2cc(OS(=O)(=O)O)ccc2c2c1CCCCC2 [compound 18, 6-Oxo-3-sulfooxy-8,9,10,11-tetrahydro-7H-cyclohepta-[c][1]-benzopyran]
